Patent US20060258598A1, “Alpha-keto carbonyl calpain inhibitors” (priority 2003, published 2006)

What was measured:
[1] = tested on: cellular calpains in C2C12 myoblasts; experiment: Calpain inhibition assay in C2C12 myoblasts; assay type: cell-based; settings: 2 h incubation, calcium ionophore Br-A-23187, read-out: Calp I IC50 Myoblast
Protocol: Calpain Inhibition Assay in C2C12 Myoblasts
This assay is aimed at monitoring the ability of the substance to inhibit cellular calpains. C2C12 myoblasts are grown in 96-well plates in growth medium (DMEM, 20% foetal calf serum) until they reach confluency. The growth medium is then replaced by fusion medium (DMEM, 5% horse serum). 24 hours later the fusion medium is replaced by fusion medium containing the test substances dissolved in 1 μl DMSO. After 2 hours of incubation at 37° C. the cells are loaded with the calpain fluorogenic substrate Suc-Leu-Tyr-AMC at 400 μM in 50 μl of a reaction buffer containing 135 mM NaCl; 5 mM KCl; 4 mM CaCl2; 1 mM MgCl2; 10 mM Glucose; 10 mM HEPES pH 7.25 for 20 min at room temperature. The calcium influx, necessary to activate the cellular calpains, is evoked by the addition of 50 μl reaction buffer containing 20 μM of the calcium ionophore Br-A-23187 (Molecular Probes). The fluorescence of the cleavage product AMC is measured as described above during 60 min at 37° C. at intervals of 1 min. The IC50 values are determined as described above. Comparison of the IC50 determined in the enzymatic calpain inhibition assay to the IC50 determined in the C2C12 myoblasts calpain inhibiton assay, allows to evaluate the cellular uptake or the membrane permeability of the substance.

[2] = tested on: Primary fibroblasts from donors with Friedreich Ataxia (FRDA); experiment: BSO assay (cell viability under BSO-induced oxidative stress); assay type: cell-based, human; settings: 24 h preincubation, 1 mM BSO; for EC50: Homo sapiens, Fibroblast
Protocol: Primary fibroblasts were derived from donors with molecular diagnosis for Friedreich Ataxia (FRDA) and control donors with no mitochondrial disease. Cell lines were obtained from Coriell Cell Repositories (Camden, N.J.; catalog numbers GM04078, GM08402 and GM08399 respectively). All cell types were diagnosed on the molecular level for intronic […] triplet repeat length of at least 400-450 repeats using a PCR-based method. Experiments were carried out as described in the literature (M. L. Jauslin et al., Human Mol. Genet., 2002, 11, 3055-3063): Cells were seeded in microtiter plates at a density of 4'000 cells per 100 μl in growth medium consisting of 25% (v/v) M199 EBS and 64% (v/v) MEM EBS without phenol red (Bioconcept, Allschwil, Switzerland) supplemented with 10% (v/v) fetal calf serum (PAA Laboratories, Linz, Austria), 100 U/ml penicillin, 100 μg/ml streptomycin (PAA Laboratories, Linz, Austria), 10 μg/ml insulin (Sigma, Buchs, Switzerland), 10 ng/ml EGF (Sigma, Buchs, Switzerland), 10 ng/ml bFGF (PreproTech, Rocky Hill, N.J.) and 2 mM glutamine (Sigma, Buchs, Switzerland). The cells were incubated in the presence of various test compounds for 24 h before addition of L-buthionine-(S,R)-sulfoximine (BSO) to a final concentration of 1 mM. Cell viability was measured after the first signs of toxicity appeared in the BSO-treated controls (typically after 16 to 48 h). The cells were stained for 60 min at room temperature in PBS with 1.2 μM calcein AM and 4 μM ethidium homodimer (Live/Dead assay, Molecular Probes, Eugene, Oreg.). Fluorescence intensity was measured with a Gemini Spectramax XS spectrofluorimeter (Molecular Devices, Sunnyvale, Calif.) using excitation and emission wavelengths of 485 nm and 525 nm respectively.

human μ-calpain = target: T1, human μ-calpain (Homo sapiens, UniProt P07384); experiment: Enzymatic calpain inhibition assay; assay type: biochemical; settings: substrate Suc-Leu-Tyr-AMC, read-out: Calp I IC50
T1 construct: purchased Calbiochem
T1 sequence (P07384 1-714): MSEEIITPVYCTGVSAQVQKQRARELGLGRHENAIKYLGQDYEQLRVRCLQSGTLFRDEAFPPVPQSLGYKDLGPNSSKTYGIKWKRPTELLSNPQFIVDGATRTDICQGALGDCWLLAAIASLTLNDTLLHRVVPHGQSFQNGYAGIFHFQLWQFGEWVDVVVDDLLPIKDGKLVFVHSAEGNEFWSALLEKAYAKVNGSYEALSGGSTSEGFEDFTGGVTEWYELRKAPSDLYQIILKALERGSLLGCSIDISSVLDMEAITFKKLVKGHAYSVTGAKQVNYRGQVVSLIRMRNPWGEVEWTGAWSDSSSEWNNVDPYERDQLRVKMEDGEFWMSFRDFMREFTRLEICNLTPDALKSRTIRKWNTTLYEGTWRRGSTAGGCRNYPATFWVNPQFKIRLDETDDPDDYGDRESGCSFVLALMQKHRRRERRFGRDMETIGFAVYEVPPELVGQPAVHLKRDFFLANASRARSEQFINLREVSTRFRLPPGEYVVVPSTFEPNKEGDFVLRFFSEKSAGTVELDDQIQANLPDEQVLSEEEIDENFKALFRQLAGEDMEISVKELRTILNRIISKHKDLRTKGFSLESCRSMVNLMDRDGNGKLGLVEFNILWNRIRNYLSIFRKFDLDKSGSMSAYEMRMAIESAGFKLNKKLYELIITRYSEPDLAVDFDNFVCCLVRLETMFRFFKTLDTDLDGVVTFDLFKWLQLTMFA
T1 sequence (P04632 1-268 partner): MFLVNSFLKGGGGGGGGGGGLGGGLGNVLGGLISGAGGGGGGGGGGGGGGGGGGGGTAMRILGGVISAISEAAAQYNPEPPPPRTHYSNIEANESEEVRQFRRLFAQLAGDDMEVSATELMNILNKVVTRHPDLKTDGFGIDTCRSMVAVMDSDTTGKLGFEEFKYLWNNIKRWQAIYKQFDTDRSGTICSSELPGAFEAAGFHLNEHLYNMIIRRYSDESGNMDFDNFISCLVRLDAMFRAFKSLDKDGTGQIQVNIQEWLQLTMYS
Protocol: The Ki value was also determined in some cases. These criteria were used to measure the inhibitory effect of the compounds (I) on calpain I, calpain II and cathepsin B.
Enzymatic Calpain Inhibition Assay
The inhibitory properties of calpain inhibitors are tested in 100 μl of a buffer containing 100 mM imidazole pH 7.5, 5 mM L-Cystein-HCl, 5 mM CaCl2, 250 μM of the calpain fluorogenic substrate Suc-Leu-Tyr-AMC (Sigma) (Sasaki et al., J. Biol. Chem., 1984, 259, 12489-12949) dissolved in 2.5 μl DMSO and 0.5 μg of human μ-calpain (Calbiochem). The inhibitors dissolved in 1 μl DMSO are added to the reaction buffer. The fluorescence of the cleavage product 7-amino-4-methylcoumarin (AMC) is followed in a SPECTRAmax GEMINI XS (Molecular Device) fluorimeter at λex=360 nm and λem=440 nm at 30° C. during 30 min at intervals of 30 sec in 96-well plates (Greiner). The initial reaction velocity at different inhibitor concentrations is plotted against the inhibitor concentration and the IC50 values determined graphically.

| IC50 [1] [nM] | IC50 (human μ-calpain) [nM] | Structure (SMILES) | EC50 [2] [nM] | BSO EC50 [2] |
| --- | --- | --- | --- | --- |
| 2500 | 20 | CCNC(=O)C(=O)[C@H](Cc1ccc(Cl)cc1)NC(=O)[C@@H](NC(=O)CCCNC(=O)CCCCC1CCSS1)C(C)C (stereo partly drawn) [Example 174] | 6000 |  |
| 2500 | 22 | CCNC(=O)C(=O)[C@H](Cc1ccc(Cl)cc1)NC(=O)[C@H](CC(C)C)NC(=O)CCCCC1CCSS1 (stereo partly drawn) [Example 15] | 4000 |  |
| 6000 | 100 | CCNC(=O)C(=O)[C@H](Cc1cccs1)NC(=O)[C@@H](NC(=O)CCCCC1CCSS1)C(C)C (stereo partly drawn) [Example 145] | 1500 |  |
| 7500 | 180 | CCNC(=O)C(=O)[C@H](Cc1ccc(C#N)cc1)NC(=O)[C@@H](NC(=O)CCCCC1CCS[S+]1[O-])C(C)C (stereo partly drawn) [Example 131] | 30000 |  |
| 2000 | 50 | CCNC(=O)C(=O)[C@H](Cc1ccc(Cl)cc1)NC(=O)[C@H](CC(C)C)NC(=O)CCCCC1CCS[S+]1[O-] (stereo partly drawn) [Example 16] | 4000 |  |
| 5000 | 100 | CCNC(=O)C(=O)[C@H](Cc1ccc(Cl)cc1)NC(=O)[C@@H](NC(=O)CCCCC1SC[C@@H]2NC(=O)N[C@H]12)C(C)C (stereo partly drawn) [Example 159] |  | inactive |
| 11000 | 85 | CCNC(=O)C(=O)[C@H](Cc1ccc(OC)cc1)NC(=O)[C@@H](NC(=O)CCCCC1SC[C@@H]2NC(=O)N[C@H]12)C(C)C (stereo partly drawn) [Example 165] | 60000 |  |
| 10000 | 40 | CCNC(=O)C(=O)[C@H](Cc1ccc(O)cc1)NC(=O)[C@H](CC(C)C)NC(=O)CCCCC1CCSS1 (stereo partly drawn) [Example 82] | 15000 |  |
| 9000 | 750 | CCNC(=O)C(=O)[C@H](Cc1ccc(Br)cc1)NC(=O)[C@@H](NC(=O)CCCCC1CCS[S+]1[O-])C(C)CC (stereo partly drawn) [Example 75] | 6000 |  |
| 2500 | 100 | CCNC(=O)C(=O)[C@H](Cc1ccc(F)cc1)NC(=O)[C@@H](NC(=O)CCCCC1CCSS1)C(C)C (stereo partly drawn) [Example 37] |  | inactive |
| 2500 | 9 | CCNC(=O)C(=O)[C@H](Cc1ccc(Cl)cc1)NC(=O)[C@H](CC(C)C)NC(=O)CNC(=O)CCCCC1CCS[S+]1[O-] (stereo partly drawn) [Example 177] | 6000 |  |
| 30000 | 40 | CCNC(=O)C(=O)[C@H](Cc1ccc(Cl)cc1)NC(=O)[C@@H](NC(=O)CCNC(=O)CCCCC1CCSS1)C(C)C (stereo partly drawn) [Example 172] | 3000 |  |
| 20000 | 100 | CCNC(=O)C(=O)[C@H](Cc1ccc(Cl)cc1)NC(=O)[C@@H](NC(=O)CCCCNC(=O)CCCCC1CCSS1)C(C)C (stereo partly drawn) [Example 175] | > 100000 |  |
| 7500 | 15 | CCNC(=O)C(=O)[C@H](Cc1ccc(Br)cc1)NC(=O)[C@H](CC(C)C)NC(=O)CNC(=O)CCCCC1CCS[S+]1[O-] (stereo partly drawn) [Example 187] | 20000 |  |
| 8000 | 20 | CCNC(=O)C(=O)[C@H](Cc1ccc([N+](=O)[O-])cc1)NC(=O)[C@H](CC(C)C)NC(=O)CCCCC1CCSS1 (stereo partly drawn) [Example 136] |  | inactive |
| 7000 | 180 | CCNC(=O)C(=O)[C@H](Cc1ccc(F)cc1)NC(=O)[C@@H](NC(=O)CCCCC1CCS[S+]1[O-])C(C)C (stereo partly drawn) [Example 38] | 20000 |  |
| 2500 | 50 | CCNC(=O)C(=O)[C@H](Cc1ccc(C#N)cc1)NC(=O)[C@H](CC(C)C)NC(=O)CCCCC1CCS[S+]1[O-] (stereo partly drawn) [Example 133] | 15000 |  |
| 1700 | 30 | CCNC(=O)C(=O)[C@H](Cc1ccc(C#N)cc1)NC(=O)[C@H](CC(C)C)NC(=O)CCCCC1CCSS1 (stereo partly drawn) [Example 132] | 5000 |  |
| 10000 | 120 | CCNC(=O)C(=O)[C@H](Cc1ccccc1)NC(=O)[C@H](CC(C)(C)C)NC(=O)CCCCC1CCSS1 (stereo partly drawn) [Example 143] | 2000 |  |
| 4000 | 400 | CCNC(=O)C(=O)[C@H](Cc1ccc(OC)cc1)NC(=O)[C@@H](NC(=O)CCCCC1CCSS1)C(C)C (stereo partly drawn) [Example 84] | 2000 |  |
| 3500 | 100 | CCNC(=O)C(=O)[C@H](Cc1ccc(Cl)cc1)NC(=O)[C@H](CC(C)(C)C)NC(=O)CCCCC1CCSS1 (stereo partly drawn) [Example 27] |  | inactive |
| 8000 | 150 | CCNC(=O)C(=O)[C@H](Cc1ccc(Br)cc1)NC(=O)[C@@H](NC(=O)CCCCC1CCS[S+]1[O-])C(C)C (stereo partly drawn) [Example 54] | 5000 |  |
| 1800 | 26 | CCNC(=O)C(=O)[C@H](Cc1ccc(OC)cc1)NC(=O)[C@@H](NC(=O)c1ccccc1NC(=O)CCCCC1CCSS1)C(C)C (stereo partly drawn) [Example 198] | 8000 |  |
| 4500 | 40 | CCNC(=O)C(=O)[C@H](Cc1ccccc1)NC(=O)[C@H](CC(C)C)NC(=O)CNC(=O)CCCCC1CCSS1 (stereo partly drawn) [Example 210] | 10000 |  |
| 1500 | 170 | CCNC(=O)C(=O)[C@H](Cc1ccc(OC)cc1)NC(=O)[C@@H](NC(=O)C1(NC(=O)CCCCC2CCSS2)CCCCC1)C(C)C (stereo partly drawn) [Example 195] | 5000 |  |
| 1000 | 300 | CCNC(=O)C(=O)[C@H](Cc1ccc(C)cc1)NC(=O)[C@@H](NC(=O)CCCCC1CCSS1)C(C)CC (stereo partly drawn) [Example 116] | 2000 |  |
